Values quoted from earlier work, collected in patent US11167084B2, “Control device for controlling the administration of propofol to a patient” (Fresenius Vial SAS, priority 2016, dated 2021).
In brackets after ≈: the same amount, converted by molar mass.

Settings: Hill equation relating effect-site concentration to BIS; Emax=E0=100, y=2; FIG. 1 from T. A. Lim, Br J Anaesth 2006

CC(C)c1cccc(C(C)C)c1O [propofol]
EC50 (propofol effective concentration 50, effect-site): 4.14 µg/mL (≈ 23.2 µM)
